Experimental findings from paper PMC6737591, “Abstracts from the 22nd International Symposium on Signal Transduction at the Blood–Brain Barriers” (Fluids and Barriers of the CNS, 2019) are described below.

Series [1] has as its system primary mouse brain microvascular endothelial cells (pMBMECs). Put plainly: Effector OT-I CD8+ T-cell interaction with antigen-pulsed pMBMECs under physiological flow. It is filed as cell-based. The note with it: SIINFEKL and MHC class I on WT pMBMECs. From the text: Methods and results: We used primary mouse brain microvascular endothelial cells (pMBMECs) as an in vitro model for BBB. […] We next investigated, if naive CD8+ T cells can interact with pMBMECs under physiological flow. […] This prompted us to investigate how endothelial Ag-presentation contributes to the interaction of effector OT-I CD8+ T-cells with pMBMECs under physiological flow.

Series [2] concerns murine brain microvascular endothelial cells (MBMECs). The series can be described thus: NMDAR modulators on brain endothelial cells (electrophysiology, Ca2+, TEER, migration). To be noted: for NMDAR mediated current: whole cell recorded MBMECs, compared to control conditions. It is filed as cell-based. An excerpt:
In neurodegenerative disorders, concentrations of extracellular neurotransmitter in the central nervous system (CNS) are out of balance. Glutamatergic dysregulation and extracellular glycine accumulation cause excitotoxicity and subsequent neuronal death. This process is largely mediated by N-methyl-D-aspartate receptor (NMDAR) activation. NMDARs are ionotropic receptors permeable for positive ions. In the CNS, they are composed by two obligatory NR1 subunits containing glycine binding sites and two NR2 subunits that are activated by glutamate. NR3 subunits which are less abundant in the CNS are activated by glycine. While neuronal NMDARs are well studied, their functional role on endothelial cells (ECs) is still to be investigated. ECs of the Blood Brain Barrier (BBB) are exposed to the extracellular milieu of the CNS and therefore to high concentrations of neurotransmitters. In this study, we investigated the effect of NMDAR modulators on murine brain microvascular endothelial cells (MBMECs).

The test system of series [3] is Rat primary brain endothelial, pericyte and astroglial cell cultures. Put plainly: Kainate damage and drug protection in BBB culture model. From the text: In animal models of epilepsy induced by kainic acid, the primary ligand of ionotropic kainate receptors, BBB damage occurs, but the effect of kainate on brain endothelial cells has not been studied. Our aim was to examine the presence of kainate receptors and the effects of kainate on cultured cells of the BBB and to test anti-inflammatory and antioxidant drugs to protect against kainate-induced changes. Rat primary brain endothelial, pericyte and astroglial cell cultures were used to study cell viability by impedance measurement and cell morphology. BBB permeability was measured on a model made from the three cell types. The production of nitrogen monoxide and reactive oxygen species was followed by fluorescent probes. Four drugs were tested to protect against kainate-induced changes. The mRNA expression of kainate receptors and nitric oxide synthases (NOS) were studied by RT-PCR.

Series [4] in a line: Chemical stability in cell media supplemented with 10% FBS by UPLC. It is filed as in vitro ADME. To be noted: for % of initial remained intact: UPLC, cell media supplemented with 10% FBS, 4 h incubation, fluorophore-labelled constructs. From the text: All constructs were stable in PBS.
Another series concerns astrocytes. Put plainly: Uptake in astrocytes cultured on the basolateral (brain) side. To be noted: rat astrocytes below bovine brain endothelial cells; fluorophore-labelled. Format: cell-based.
The test system of a further series is transgenic hAPP mice. The series can be described thus: PCN or NAC purified diet in transgenic hAPP mice. It is filed as in vivo. From the text: Methods: To test our hypothesis, transgenic hAPP mice received a purified diet containing the PXR activator pregnenolone 16α-carbonitrile (PCN) or the ROS scavenger N-acetyl-L-cysteine (NAC). We assessed P-gp protein expression and transport activity, Aβ brain and plasma levels, capillary leakage, renal function and cognition to test the PCN or NAC effect in hAPP mice.

In series [5] the target is T1, Creatine transporter (CRT) (Homo sapiens, UniProt P48029).
T1 sequence (P48029 1-635): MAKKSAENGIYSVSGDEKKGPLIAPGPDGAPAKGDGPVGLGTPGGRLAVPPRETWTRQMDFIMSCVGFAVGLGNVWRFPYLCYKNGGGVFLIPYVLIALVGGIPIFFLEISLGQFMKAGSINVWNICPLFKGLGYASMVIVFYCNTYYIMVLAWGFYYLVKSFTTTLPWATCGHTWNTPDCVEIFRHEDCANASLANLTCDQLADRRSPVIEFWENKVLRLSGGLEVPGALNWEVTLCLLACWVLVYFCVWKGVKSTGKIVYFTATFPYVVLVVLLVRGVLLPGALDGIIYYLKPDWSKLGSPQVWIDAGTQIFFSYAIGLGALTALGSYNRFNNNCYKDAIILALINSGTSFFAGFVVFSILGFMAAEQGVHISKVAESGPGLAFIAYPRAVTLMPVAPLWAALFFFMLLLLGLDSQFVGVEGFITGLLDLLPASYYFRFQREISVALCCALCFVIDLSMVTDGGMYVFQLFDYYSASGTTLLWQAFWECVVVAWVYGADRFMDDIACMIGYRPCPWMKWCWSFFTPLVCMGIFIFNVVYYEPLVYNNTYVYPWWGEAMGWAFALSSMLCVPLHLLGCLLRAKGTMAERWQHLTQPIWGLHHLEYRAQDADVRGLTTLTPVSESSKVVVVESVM
Put plainly: [14C]cyclocreatine / [14C]creatine uptake by HEK293 cells. It is filed as cell-based. More on the design: endogenous in cells; host or cells: HEK293 cells. To be noted: for inhibition of uptake by CRT-targeting siRNA: CRT protein expression reduced by 42%, substrate 9 µM. The method, then: (§1) Methods: Cells were incubated with [14C]cyclocreatine (9 µM) and [14C]creatine (9 µM) for the indicated times at 37 °C in the presence or absence of several compounds. siRNAs were transfected by lipofection. Protein and mRNA expressions were quantified by LC–MS/MS and qPCR, respectively.

Series [6] deals with T1, Creatine transporter (CRT). The series can be described thus: [14C]cyclocreatine / [14C]creatine uptake by hCMEC/D3 cells. It is filed as cell-based. The note with it: for inhibition of uptake by CRT-targeting siRNA: CRT mRNA expression reduced by 97%, substrate 9 µM; for suppression of [14C]cyclocreatine uptake: [14C]cyclocreatine 9 µM, 37 °C. Details: hCMEC/D3 cells, which are immortalized human brain microvascular endothelial cells; endogenous in cells; host or cells: hCMEC/D3 cells. As for the experimental part: as §1

Substrate in series [7]: NC1=NCCN1CC(=O)O
The series can be described thus: [14C]cyclocreatine / [14C]creatine uptake by HEK293 cells. It is filed as cell-based. The note with it: other: HEK293 cells, 37 °C, saturable kinetics. As for the experimental part:
as §1

The mark [8] stands for this setting: 12-month old mice treated for 3 weeks.

Take “SIINFEKL [cognate peptide antigen for OT-I CD8+ T cells]”: in series [1], the T-cell crawling result was “prohibited” and the T-cell migration rates result is given as “decreased”.

Take `N[C@@H](CCC(=O)O)C(=O)O` [glutamate]: the “transendothelial electrical resistance (TEER)” value in series [2] (MBMECs) was “No changes”. The NMDAR mediated current result in series [2] is on record as “did neither evoke any”.

In the case of `O=C(O)c1cccnc1C(=O)O` [quinolinic acid], in [2] (MBMECs), the “transendothelial electrical resistance (TEER)” value is listed as “No changes”. In series [2], the NMDAR mediated current result is “did neither evoke any”.

Turning to `C=C(C)[C@H]1CN[C@H](C(=O)O)[C@H]1CC(=O)O` [Kainate, kainic acid], the “production of nitric oxide (NO) in brain endothelial cells” value in [3] (fluorescent probes) is reported as “increased”. In addition, the “viability or morphology of astroglial cells” value in [3] (rat primary astroglial cells) is “unchanged”. Also, the “effect on brain endothelial cells (viability by impedance)” value in series [3] (rat primary brain endothelial cells, concentration- and time-dependent) was “damaged”.

In the case of “NR2B9c: clinically relevant peptide drug entity (1 kDa) (KLSSIESDV; UniProt Q13224 1476-1484, looked up, fragment)”, the “% of initial remained intact” value in series [4] is reported as ~ 90%. In the series with astrocytes, the “uptake in astrocytes cultured on the basolateral (brain) side” value is on record as “not”.

For `CC(=O)N[C@@H](CS)C(=O)O` [NAC, N-acetyl-L-cysteine], in the series with transgenic hAPP mice (setting [8]), the barrier leakage entry is listed as “reduced” and the renal function entry is recorded as “improved”.

The term inhibition denotes the drop in the measured response relative to a control, in per cent. Regarding `CN(CC(=O)O)C(=N)N` [creatine], the inhibition at 10000 µM in series [5] (HEK293, read-out: inhibition of [14C]cyclocreatine uptake) came to 97%. Moreover, the “inhibition of uptake by CRT-targeting siRNA” value (from here on “inhibition of uptake”) in series [5] (HEK293 cells) worked out at 37%. In series [6], the “inhibition of uptake” value is given as 63% and the “suppression of [14C]cyclocreatine uptake” value was 91%.

For the molecule `NCC(=O)O` [glycine], in series [2] (MBMECs), the MBMEC migration entry is reported as “impaired”, the “intracellular Ca2+ levels” value is “increase” and the “transendothelial electrical resistance (TEER)” value is “reduced”. Further, in [2], the NMDAR mediated current result is “bigger”.

Turning to “Tat: 11-residue cationic peptide, tool to facilitate delivery of peptide drug entities into cells and across barriers”, the “% of initial remained intact” value in series [4] is ~ 50%. Besides, the “integrity in cell media (in words)” value in [4] (cell media, conclusion statement) was “extensive degradation”. In addition, the “uptake in astrocytes cultured on the basolateral (brain) side” value with astrocytes was “observed”.

As for `NC1=NCCN1CC(=O)O` [[14C]cyclocreatine, cyclocreatine], the “inhibition of uptake” value is 33% in series [5] (HEK293 cells) and 70% in [6].

Regarding `NC(N)=NCCC(=O)O` [GPA, guanidinopropionic acid], the “inhibition of [14C]cyclocreatine uptake” value in [5] (HEK293 cells, inhibitor 10 mM, [14C]cyclocreatine 9 µM, 37 °C) was found to be 96%. Also, in [6], the “suppression of [14C]cyclocreatine uptake” value came out at 91%.

For the molecule `CC(=O)[C@H]1[C@H](C#N)C[C@H]2[C@@H]3CC=C4C[C@@H](O)CC[C@]4(C)[C@H]3CC[C@@]21C` [PCN, pregnenolone 16α-carbonitrile], in the series on transgenic hAPP mice (hAPP mice fed for 21 months), the Aβ brain levels result was “lowered”; the “P-gp protein expression and transport activity” value is recorded as “restored”; the cognition entry is reported as “improved”.

With `CC1=NN(c2ccccc2)C(=O)C1` [edaravone], the “protection against the reduced cell viability and increased permeability caused by kainate” value in series [3] (kainate-treated cells / BBB model) is reported as “protected”.

B1: Creatine transporter (CRT) (Homo sapiens) (protein)
chain: T1 sequence (P48029 1-635)
notes: endogenous in cells; host or cells: HEK293 cells
Broadly, the Km is the concentration of substrate that gives half-maximal velocity. In the case of B1, in series [7], the Km was 188 µM and the Vmax turned out to be 273 pmol/mg protein/min.
